We go through six molecules from ChEMBL document CHEMBL3046744, “Comparison of the declining triazole sensitivity of Gibberella zeae and increased sensitivity achieved by advances in triazole fungicide development” (Crop Prot, 2007).

pEC50: −log10 of the molar value. The source made the active and inactive calls. The rule behind the calls is not given here.

One data set deals with Fusarium culmorum. The experiment in a line: Antifungal activity against Fusarium culmorum infected durum wheat assessed as reduction in deoxynivalenol content in crop. The data set is classed as functional. On the set-up: scale not given: the % may be the effect or the level left.
The next data set deals with Rattus norvegicus. The experiment in a line: Toxicity in po dosed Rattus norvegicus (rat) relative to metconazole. The data set is classed as organism-based. Conditions: in vivo.
Data set [1] can be described thus: Aqueous solubility of the compound assessed per 100 g. Type of data set: physicochemical. Particulars: buffer.
For data set [2], the system named is Fusarium graminearum. The experiment in a line: Growth inhibition of Fusarium graminearum isolate 123 at 10^-4 M after 14 days. The data set is classed as functional. Particulars: isolate 123, 336 h, read-out: GI.
Data set [3] concerns Fusarium graminearum. The experiment in a line: Growth inhibition of Fusarium graminearum isolate 37 at 10^-4 M after 14 days. The data set is classed as functional. Particulars: isolate 37, 336 h, read-out: GI.
Data set [4] concerns Fusarium graminearum. The experiment in a line: Growth inhibition of Fusarium graminearum isolate 74B at 10^-4 M after 14 days. Type of data set: functional. Particulars: 336 h, read-out: GI.
Data set [5] relates to Fusarium graminearum. The experiment in a line: Growth inhibition of Fusarium graminearum isolate 102 at 10^-4 M after 14 days. Type of data set: functional. Particulars: isolate 102, 336 h, read-out: GI.
Data set [6] can be described thus: Toxicity in po dosed Rattus norvegicus (rat). Particulars: in vivo. Type of data set: organism-based.
Data set [7] concerns Fusarium graminearum. The experiment in a line: Growth inhibition of Fusarium graminearum isolate 4527b at 10^-4 M after 14 days. The data set is classed as functional. Particulars: 336 h, read-out: GI.
For data set [8], the system named is Fusarium graminearum. The experiment in a line: Antifungal activity against Fusarium graminearum after 8 hr by microscopic analysis relative to prothioconazole. The data set is classed as functional.
The subject of data set [9] is Fusarium graminearum. The experiment in a line: Antifungal activity against Fusarium graminearum isolate 137 after 8 hr by microscopic analysis. The data set is classed as functional, organism-based. Conditions: isolate 137, 8 h, pooled result: one value given for 5 cell lines, strains, targets or settings.
For data set [10], the system named is Fusarium graminearum. The experiment in a line: Growth inhibition of Fusarium graminearum isolate 106 at 10^-4 M after 14 days. The data set is classed as functional. Particulars: isolate 106, 336 h, read-out: GI.
For data set [11], the system named is Fusarium graminearum. The experiment in a line: Growth inhibition of Fusarium graminearum isolate 137 at 10^-4 M after 14 days. Type of data set: functional. Conditions: isolate 137, 336 h, read-out: GI.
Data set [12] can be described thus: Aqueous solubility of the compound assessed per 100 g at pH 7. The data set is classed as physicochemical. Conditions: buffer.
A short description of data set [13]: Selectivity ratio of relative toxicity against po dosed rat to relative efficacy against Gibberella zeae. The data set is classed as organism-based. Conditions: in vivo.
Data set [14] deals with Fusarium graminearum. The experiment in a line: Growth inhibition of Fusarium graminearum at >/= 0.001 M after 14 days. Type of data set: functional, organism-based.

Regarding `Clc1ccc(C2(Cn3cncn3)CC(Br)CO2)c(Cl)c1` (stereo unspecified) [BROMUCONAZOLE], the Activity with Fusarium culmorum was determined as 43%.
For the molecule `Fc1ccc([C@]2(Cn3cncn3)O[C@H]2c2ccccc2Cl)cc1` [EPOXICONAZOLE], the “fold change (FC)” value is recorded as 0.19 in the data set on Rattus norvegicus and 0 in the data set with Fusarium graminearum [8]. The molecule further came in with a solubility in data set [1] of 0.7 mg. Further, the inhibition of growth at 100 µM with Fusarium graminearum [2] was found to be 95.9%; in the data set with Fusarium graminearum [3], 98.7%; in the data set on Fusarium graminearum [4], 95.7%; in the data set with Fusarium graminearum [5], 97.1%; in the data set on Fusarium graminearum [7] it was 98%; with Fusarium graminearum [10] it was 95.4%. Further, the inhibition of growth at 100 µM in the data set on Fusarium graminearum [11] was determined as 99.6%. In addition, the LD50 (usually the dose expected to kill half of the subjects tested) in data set [6] amounted to 3160 mg/kg. Moreover, the negative-log EC50 (pEC50) (in general, −log10 of the EC50, conventionally taken in molar units) in the data set on Fusarium graminearum [9] is 1.97.
In data set [6], `CC1(C)CCC(Cc2ccc(Cl)cc2)C1(O)Cn1cncn1` (stereo unspecified) [METCONAZOLE] showed an LD50 of 660 mg/kg. Moreover, the “fold change (FC)” value with Fusarium graminearum [8] is given as 0.27. Moreover, the solubility in data set [12] was 3 mg. This molecule also had a pEC50 in the data set with Fusarium graminearum [9] of 3.75. The selectivity ratio in data set [13] came out at 0.27.
For the molecule `CCCN(CCOc1c(Cl)cc(Cl)cc1Cl)C(=O)n1ccnc1` [PROCHLORAZ], the Activity in the data set on Fusarium culmorum was found to be 43%.
Take `OC(Cc1ccccc1Cl)(Cn1nc[nH]c1=S)C1(Cl)CC1` (stereo unspecified) [PROTHIOCONAZOLE]: the “fold change (FC)” value with Rattus norvegicus was found to be 0.1. In addition, the LD50 in data set [6] is 6200 mg/kg. In addition, the pEC50 in the data set on Fusarium graminearum [9] was 4.49. Also, the selectivity ratio in data set [13] turned out to be 10.3.
Consider `CC(C)(C)C(O)(CCc1ccc(Cl)cc1)Cn1cncn1` (stereo unspecified) [TEBUCONAZOLE], for which the figures for the “fold change (FC)” value with Rattus norvegicus and in the data set on Fusarium graminearum [8] were 0.35 and 0.15, respectively. For the same molecule, the solubility in data set [1] is listed as 3.6 mg. For the same molecule, the “growth inhibition (GI)” value in the data set on Fusarium graminearum [14] is “Active”. The same molecule showed a 50% lethal dose (LD50) in data set [6] of 1700 mg/kg. Besides, in the data set on Fusarium graminearum [9], the pEC50 was 3.49. For the same molecule, in the data set on Fusarium culmorum, the Activity came out at 43%. The selectivity ratio in [13] amounted to 0.44.
